Laboratory results reported in patent US20220193085A1, “METHODS OF THROMBOPROPHYLAXIS” (JANSSEN PHARMACEUTICALS, INC., priority 2020, published 2022).

How the values were obtained:
[1] = UNIVERSE adverse events, serious adverse events and treatment discontinuation; assay type: in vivo, pediatric patients; conditions: Part B rivaroxaban N=64, aspirin N=34
From the text: Other safety outcomes: Any adverse events and serious adverse events (SAES).

[2] = UNIVERSE primary efficacy outcome: any thrombotic event (CIAC adjudicated); assay type: in vivo, pediatric patients; conditions: Part B rivaroxaban N=64, aspirin N=34, up to end of treatment, full analysis set
From the text: This study was a prospective, open-label, active-controlled, multicenter study designed to evaluate the PK and PK/PD profiles, safety, and efficacy of rivaroxaban for thromboprophylaxis in pediatric patients 2 to 8 years of age with single ventricle physiology who have completed the Fontan procedure within 4 months prior to enrollment. The trial was approved by the institutional review board of each participating institution, as well as the appropriate national ethics committee. Written informed consent for trial participation was obtained from the parent or guardian of each patient. An Independent Data Monitoring Committee (IDMC) ensured patients' safety throughout the trial. A Central Independent Adjudication Committee (CIAC) reviewed all efficacy and safety events.
Part B was the randomized, open-label, active-controlled part of the study that evaluated the safety and efficacy of twice daily administration of rivaroxaban compared to ASA (usual standard of care) for thromboprophylaxis for 12 months. Patients randomized to rivaroxaban also had PK and PD assessments.
Primary efficacy outcome: Any thrombotic event, venous or arterial, symptomatic or asymptomatic defined as: • The appearance of a new thrombus within the cardiovascular system on either routine surveillance or clinically indicated imaging, or • The occurrence of a clinical event known to be strongly associated with thrombus (e.g., stroke, pulmonary embolism).
All efficacy outcomes were adjudicated by the CIAC, blinded to assigned treatment.

[3] = human, in vivo
From the text: The methods and products of the invention concern dosages that are clinically proven safe and/or effective. Adverse events that impact whether the inventive dose, dosing regimen, treatment or method with rivaroxaban of the present invention are safe are adverse bleeding events that include, for example, major bleeding. “Major bleeding” as used herein is defined in accordance with ISTH criteria as clinically overt bleeding associated with a decrease in hemoglobin of […], a transfusion of the equivalent of […] of packed red blood cells or whole blood, or bleeding at a critical site, or with fatal outcome. Other adverse events include clinically relevant non-major bleeding and trivial (minimal) bleeding.
The primary safety outcome was ISTH defined major bleeding. Major bleeding was defined as overt bleeding and: […]
1) Associated with a fall in hemoglobin of 2 g/dL or more; or 2) Leading to a transfusion of the equivalent of 2 or more units of packed red blood cells or whole blood in adults; or 3) Occurring in a critical site: intracranial, intraspinal, intraocular, pericardial, intraarticular, intramuscular with compartment syndrome, retroperitoneal; or 4) Contributing to death.
The secondary safety outcomes were: Clinically relevant non-major bleeding and trivial (minimal) bleeding events.

[4] = treatment-emergent, safety set, listed as ASA
[5] = up to end of treatment, full analysis set

CC(=O)Oc1ccccc1C(=O)O [Aspirin, acetylsalicylic acid]
AEs related to Study Agent, % of subjects ([1]; safety set): (26.5%)
AEs related to Study Agent, n (%) ([1]; safety set): 9
SAEs related to Study Agent, n (%) ([1]; safety set): 0
TEAEs resulting in Permanent Discontinuation of Study Agent, n (%) ([1]; safety set): 0
Adverse event: Pleural Effusion, % of participants ([1]; treatment-emergent, safety set): (6%)
All TEAEs (subjects with 1 or more), % of subjects ([1]; treatment-emergent, safety set): (85.3%)
All TESAEs (subjects with 1 or more serious adverse events), % of subjects ([1]; treatment-emergent, safety set): (23.5%)
Serious adverse event: Infections, % of participants ([1]; treatment-emergent, safety set): (12%)
Serious adverse event: Infections, n (%) ([1]; treatment-emergent, safety set): 4
Serious adverse event: Pleural Effusion, % of participants ([1]; treatment-emergent, safety set): (6%)
Serious adverse event: Pleural Effusion, n (%) ([1]; treatment-emergent, safety set): 2
Serious adverse event: Respiratory, Thoracic, and Mediastinal Disorders, % of participants ([1]; treatment-emergent, safety set): (9%)
Serious adverse event: Respiratory, Thoracic, and Mediastinal Disorders, n (%) ([1]; treatment-emergent, safety set): 3
TEAE: Gastrointestinal Disorders, % of subjects ([1]; treatment-emergent, safety set): (26.5%)
TEAE: Gastrointestinal Disorders, n (%) ([1]; treatment-emergent, safety set): 9
TEAE: General Disorders and Administration Site Conditions, % of subjects ([1]; treatment-emergent, safety set): (23.5%)
TEAE: General Disorders and Administration Site Conditions, n (%) ([1]; treatment-emergent, safety set): 8
TEAE: Infections and infestations, % of subjects ([1]; treatment-emergent, safety set): (64.7%)
TEAE: Injury, Poisoning, and Procedural Complications, % of subjects ([1]; treatment-emergent, safety set): (29.4%)
TEAE: Injury, Poisoning, and Procedural Complications, n (%) ([1]; treatment-emergent, safety set): 10
TEAE: Respiratory, Thoracic, and Mediastinal Disorders, % of subjects ([1]; treatment-emergent, safety set): (26.5%)
TEAE: Respiratory, Thoracic, and Mediastinal Disorders, n (%) ([1]; treatment-emergent, safety set): 9
TEAE: Skin and Subcutaneous Tissue Disorders, % of subjects ([1]; treatment-emergent, safety set): (26.5%)
TEAE: Skin and Subcutaneous Tissue Disorders, n (%) ([1]; treatment-emergent, safety set): 9
TEAE: Vascular Disorders, % of subjects ([1]; treatment-emergent, safety set): (2.9%)
TEAE: Vascular Disorders, n (%) ([1]; treatment-emergent, safety set): 1
Adverse event: Pleural Effusion, n (%) [1, 4]: 2
All TEAEs (subjects with 1 or more), % of subjects [1, 4]: (85%)
All TEAEs (subjects with 1 or more), n (%) [1, 4]: 29
All TESAEs (subjects with 1 or more serious adverse events), % of subjects [1, 4]: (24%)
All TESAEs (subjects with 1 or more serious adverse events), n (%) [1, 4]: 8
TEAE: Gastrointestinal Disorders, % of subjects [1, 4]: (26%)
TEAE: General Disorders and Administration Site Conditions, % of subjects [1, 4]: (24%)
TEAE: Infections and infestations, % of subjects [1, 4]: (65%)
TEAE: Infections and infestations, n (%) [1, 4]: 22
TEAE: Injury, Poisoning, and Procedural Complications, % of subjects [1, 4]: (29%)
TEAE: Respiratory, Thoracic, and Mediastinal Disorders, % of subjects [1, 4]: (26%)
TEAE: Skin and Subcutaneous Tissue Disorders, % of subjects [1, 4]: (26%)
TEAE: Vascular Disorders, % of subjects [1, 4]: (3%)
SAEs, % of subjects [1, 5]: (23.5%)
SAEs, No. of subjects with event [1, 5]: 8/34
All-cause mortality, No. of subjects with event [2]: 0
Any thrombotic event (primary efficacy outcome), % of subjects [2]: (8.8%)
Arterial/intracardiac thrombosis, subjects n (%) [2]: 0
Ischemic stroke, % of subjects [2]: (2.9%)
Other thrombosis, subjects n (%) [2]: 0
Pulmonary embolism, subjects n (%) [2]: 0
Venous thromboembolism, % of subjects [2]: (5.9%)
Venous thromboembolism, No. of subjects with event [2]: 2/34
Venous thrombosis, % of subjects [2]: (5.9%)
Any thrombotic event (primary efficacy outcome), % of subjects ([2]; listed as ASA): 9%
CRNM bleeding: GI-Lower, % of subjects [3]: (2.9%)
CRNM bleeding: Gastrointestinal, % of subjects [3]: (2.9%)
CRNM bleeding: Gastrointestinal, subjects n (%) [3]: 1
CRNM bleeding: Gingival, subjects n (%) [3]: 0
CRNM bleeding: Hematoma, % of subjects [3]: (2.9%)
CRNM bleeding: Skin, % of subjects [3]: (2.9%)
CRNM bleeding: Subconjunctival, % of subjects [3]: (2.9%)
Clinically relevant non-major (CRNM) bleeding, % of subjects [3]: (8.8%)
Clinically relevant non-major (CRNM) bleeding, No. of subjects with event [3]: 3/34
Clinically relevant non-major bleeding, % of subjects [3]: (8.8%)
Fall in hemoglobin ≥2 g/dL or transfusion of the equivalent ≥2 units of packed red blood cell or whole blood in adults, No. of subjects with event [3]: 0
Fatal or critical site bleeding, No. of subjects with event [3]: 0
Major and clinically relevant non-major bleeding, % of subjects [3]: (8.8%)
Major and clinically relevant non-major bleeding, No. of subjects with event [3]: 3/34
Major bleeding (primary safety outcome), No. of subjects with event [3]: 0
Subjects with 1 or more on-treatment bleeding events, % of subjects [3]: (41.2%)
Trivial (minimal) bleeding, % of subjects [3]: (35.3%)
Trivial (minimal) bleeding, No. of subjects with event [3]: 12/34
Trivial bleeding, % of subjects [3]: (35.3%)
Trivial bleeding: Epistaxis, % of subjects [3]: (8.8%)
Trivial bleeding: Epistaxis, subjects n (%) [3]: 3
Trivial bleeding: GI-Lower, % of subjects [3]: (2.9%)
Trivial bleeding: GI-Lower, subjects n (%) [3]: 1
Trivial bleeding: GI-Upper, subjects n (%) [3]: 0
Trivial bleeding: Gastrointestinal, % of subjects [3]: (2.9%)
Trivial bleeding: Gastrointestinal, subjects n (%) [3]: 1
Trivial bleeding: Gingival, % of subjects [3]: (2.9%)
Trivial bleeding: Gingival, subjects n (%) [3]: 1
Trivial bleeding: Hematoma, % of subjects [3]: (5.9%)
Trivial bleeding: Hematoma, subjects n (%) [3]: 2
Trivial bleeding: Skin, % of subjects [3]: (23.5%)
Trivial bleeding: Vascular Access Site, subjects n (%) [3]: 0
